# From patent US20100216779A1 (GLAXOSMITHKLINE LLC, priority 2007, published 2010)
# What was measured:
# Type in all cases: cell-based
# [1] = molecular target: T1, human IGF-1R (NIH-3T3 cells over expressing human IGF-1R) (Homo sapiens, UniProt P08069); assay: IGF-1R cellular autophosphorylation (DELFIA); settings: IGF-1 stimulated
# T1 construct: expressed in transfected cells; host or cells: NIH-3T3 (mouse fibroblasts)
# In short: (§1)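 Autophosphorylation of IGF-1R or IR is measured in NIH-3T3 lines overexpressing each human receptor after 2 h compound pretreatment and a 15 min ligand challenge (IGF-1 30 ng/mL; insulin 3 ug/mL). Fluorescence is normalised to 100% stimulation.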
# [2] = test system: NCI-H929 (multiple myeloma); assay: Inhibition of cell proliferation, CellTiter-Glo, NCI-H929; settings: Homo sapiens, 72 h
# Description: C. Inhibition of Cell Proliferation
# Cell proliferation was measured by either CellTiter-Glo (measures cellular ATP level as a surrogate for total cell number) or by InCell analyzer (counts number of nuclei as a measure of cell number). For CellTiter-Glo assay, exponentially growing cell lines of different tumor origins, cultured in appropriate media containing 10% fetal bovine serum at 37° C. in a 5% CO2 incubator, were plated at low density (less than 2000 cells/well) in 96-well plates. Twenty four hours post-plating, cells were treated with different concentrations of test compounds ranging from 30 uM to 1.5 nM. Several wells were left untreated as a control. Seventy two hours post-treatment, cell numbers were determined using 50-100 ul per well of CellTiter-Glo (Promega #G7573). Plates were incubated at 37° C. for 30 minutes and the chemiluminescent signal was read on the Victor V or Envison 2100 reader. […]
# COLO205 (colon) = assay: Inhibition of cell proliferation, CellTiter-Glo, COLO205; settings: Homo sapiens, COLO 205, 72 h
# In short: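 Exponentially growing COLO205 cells in medium with 10% FBS were plated below 2000 cells/well at 37 °C, 5% CO2. Untreated wells served as controls.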
# [3] = molecular target: T2, IR (NIH-3T3 cells over expressing human IGF-1R or IR) (Homo sapiens, UniProt P06213); assay: IR cellular autophosphorylation (DELFIA); settings: NIH-3T3 cells over expressing IR, insulin stimulated
# T2 construct: expressed in transfected cells; host or cells: NIH-3T3 (mouse fibroblasts)
# T2 sequence (P06213 28-1382): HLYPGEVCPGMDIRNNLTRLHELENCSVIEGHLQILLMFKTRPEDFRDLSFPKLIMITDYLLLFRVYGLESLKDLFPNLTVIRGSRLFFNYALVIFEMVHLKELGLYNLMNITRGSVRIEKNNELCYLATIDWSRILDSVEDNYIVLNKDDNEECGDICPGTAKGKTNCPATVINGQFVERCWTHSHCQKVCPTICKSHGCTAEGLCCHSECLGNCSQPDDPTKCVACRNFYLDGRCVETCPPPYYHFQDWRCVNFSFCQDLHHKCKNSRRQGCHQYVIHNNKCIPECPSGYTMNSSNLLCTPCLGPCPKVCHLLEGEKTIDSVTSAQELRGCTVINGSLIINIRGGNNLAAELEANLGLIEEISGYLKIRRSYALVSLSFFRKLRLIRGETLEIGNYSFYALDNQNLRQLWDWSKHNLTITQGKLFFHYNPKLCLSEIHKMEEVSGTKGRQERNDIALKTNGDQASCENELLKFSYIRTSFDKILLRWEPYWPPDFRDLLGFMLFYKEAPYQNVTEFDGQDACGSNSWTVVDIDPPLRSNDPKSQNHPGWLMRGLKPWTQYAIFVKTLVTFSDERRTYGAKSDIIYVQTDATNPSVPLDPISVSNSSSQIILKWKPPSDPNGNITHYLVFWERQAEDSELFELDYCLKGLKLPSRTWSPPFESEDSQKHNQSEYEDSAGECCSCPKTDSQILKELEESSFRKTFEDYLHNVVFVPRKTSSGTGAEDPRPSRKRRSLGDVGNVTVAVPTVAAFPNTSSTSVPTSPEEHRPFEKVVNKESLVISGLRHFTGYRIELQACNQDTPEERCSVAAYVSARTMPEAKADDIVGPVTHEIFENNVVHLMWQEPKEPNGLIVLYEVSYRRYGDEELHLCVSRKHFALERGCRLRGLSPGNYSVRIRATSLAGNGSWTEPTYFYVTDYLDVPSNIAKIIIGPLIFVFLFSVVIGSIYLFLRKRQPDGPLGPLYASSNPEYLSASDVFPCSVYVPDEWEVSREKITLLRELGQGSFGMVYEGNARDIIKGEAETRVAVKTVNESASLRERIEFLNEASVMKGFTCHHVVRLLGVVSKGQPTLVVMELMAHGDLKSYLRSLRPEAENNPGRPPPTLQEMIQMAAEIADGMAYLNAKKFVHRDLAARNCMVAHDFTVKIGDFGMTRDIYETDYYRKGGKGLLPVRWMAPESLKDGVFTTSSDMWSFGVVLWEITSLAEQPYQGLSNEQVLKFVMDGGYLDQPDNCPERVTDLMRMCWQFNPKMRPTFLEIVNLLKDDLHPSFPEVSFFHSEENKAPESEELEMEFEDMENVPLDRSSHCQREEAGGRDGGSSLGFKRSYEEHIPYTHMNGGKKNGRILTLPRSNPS
# In short: as §1
# T1 sequence (P08069 31-1367): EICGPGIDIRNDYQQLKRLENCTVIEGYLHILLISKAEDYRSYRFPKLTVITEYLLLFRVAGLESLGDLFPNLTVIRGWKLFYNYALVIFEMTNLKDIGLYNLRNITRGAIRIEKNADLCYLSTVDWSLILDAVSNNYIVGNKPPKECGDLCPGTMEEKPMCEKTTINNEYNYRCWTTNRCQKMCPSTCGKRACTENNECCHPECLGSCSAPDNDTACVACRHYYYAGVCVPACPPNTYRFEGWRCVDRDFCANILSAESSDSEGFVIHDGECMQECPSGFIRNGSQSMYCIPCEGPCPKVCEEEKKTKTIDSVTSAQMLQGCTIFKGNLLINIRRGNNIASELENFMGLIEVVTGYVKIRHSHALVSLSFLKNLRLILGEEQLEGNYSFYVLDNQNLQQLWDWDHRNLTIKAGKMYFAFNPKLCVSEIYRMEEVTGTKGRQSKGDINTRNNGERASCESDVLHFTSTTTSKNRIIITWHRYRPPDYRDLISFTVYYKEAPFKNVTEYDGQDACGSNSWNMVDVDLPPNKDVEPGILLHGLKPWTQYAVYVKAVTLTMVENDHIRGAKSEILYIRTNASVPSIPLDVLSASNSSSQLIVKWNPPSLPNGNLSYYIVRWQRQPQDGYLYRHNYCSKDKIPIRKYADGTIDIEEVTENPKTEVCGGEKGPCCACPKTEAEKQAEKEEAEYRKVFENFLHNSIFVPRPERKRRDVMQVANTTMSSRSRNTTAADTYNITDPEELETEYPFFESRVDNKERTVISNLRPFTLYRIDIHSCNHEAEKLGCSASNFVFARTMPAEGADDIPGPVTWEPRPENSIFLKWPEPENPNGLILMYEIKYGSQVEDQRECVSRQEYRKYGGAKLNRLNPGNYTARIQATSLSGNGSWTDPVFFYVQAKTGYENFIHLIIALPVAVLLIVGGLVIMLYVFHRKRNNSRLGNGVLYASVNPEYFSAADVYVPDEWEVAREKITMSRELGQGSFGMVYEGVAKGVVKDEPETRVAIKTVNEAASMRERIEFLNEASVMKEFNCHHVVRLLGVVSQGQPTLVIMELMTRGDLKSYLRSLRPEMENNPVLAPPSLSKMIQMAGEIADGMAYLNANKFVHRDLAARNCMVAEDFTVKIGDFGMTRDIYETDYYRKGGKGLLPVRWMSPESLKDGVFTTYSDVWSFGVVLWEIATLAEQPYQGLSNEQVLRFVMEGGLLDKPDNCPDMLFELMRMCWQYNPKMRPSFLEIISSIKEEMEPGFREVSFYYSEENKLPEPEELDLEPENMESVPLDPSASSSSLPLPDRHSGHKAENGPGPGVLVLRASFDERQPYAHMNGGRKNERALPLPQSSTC
smiles,measurement,setting,value
"CCCc1cc(N2CCC(N3CCCCC3)CC2)ccc1Nc1nccc(-c2c(-c3cccc(C(=O)Nc4c(F)cccc4F)c3)nc3ccccn23)n1 [Example 41, 3-[3-(2-{[4-(1,4′-bipiperidin-1′-yl)-2-propylphenyl]amino}-4-pyrimidinyl)imidazo[1,2-a]pyridin-2-yl]-N-(2,6-difluorophenyl)benzamid]",IC50,[1],< 0.1 µM
same,IC50,[2],0.25 to 1 µM
same,IC50,COLO205 (colon),0.25 to 1 µM
same,IC50,[3],0.1 to 0.5 µM
"CC(C)Cc1cc(N2CCC(N3CCCCC3)CC2)ccc1Nc1nccc(-c2c(-c3cccc(C(=O)Nc4c(F)cccc4F)c3)nc3ccccn23)n1 [Example 42, 3-[3-(2-{[4-(1,4′-bidideridin-1′-yl)-2-(2-methylpropyl)phenyl]amino}-4-pyrimidinyl)imidazo[1,2-a]pyridin-2-yl]-N-(2,6-difluorophenyl)benzamide]",IC50,[1],< 0.1 µM
same,IC50,[2],> 1 µM
same,IC50,COLO205 (colon),> 1 µM
same,IC50,[3],> 0.5 µM
"COc1cc(N2CCC(N3CCCN(C)CC3)CC2)ccc1Nc1nccc(-c2c(-c3cccc(C(=O)Nc4c(F)cccc4F)c3)nc3ccccn23)n1 [Example 48, N-(2,6-difluorophenyl)-3-[3-(2-{[4-[4-(4-methylhexahydro-1H-1,4-diazepin-1-yl)-1-piperidinyl}-2-(methyloxy)phenyl]amino}-4-pyrimidinyl)imidazo[1,2-a]pyridin-2-yl]benzamide]",IC50,[1],< 0.1 µM
same,IC50,[2],0.25 to 1 µM
same,IC50,COLO205 (colon),0.25 to 1 µM
same,IC50,[3],0.1 to 0.5 µM
"COCCN(CCOC)C1CCN(c2ccc(Nc3nccc(-c4c(-c5cccc(C(=O)Nc6c(F)cccc6F)c5)nc5ccccn45)n3)c(OC)c2)CC1 [Example 49, 3-[3-(2-{[4-(4-{bis[2-(methyloxy)ethyl]amino}-1-piperidinyl)-2-(methyloxy)phenyl]amino}-4-pyrimidinyl)imidazo[1,2-a]pyridin-2-yl]-N-(2,6-difluorophenyl)benzamide]",IC50,[1],0.1 to 0.5 µM
same,IC50,[2],0.25 to 1 µM
same,IC50,COLO205 (colon),0.25 to 1 µM
same,IC50,[3],< 0.1 µM
"COc1cc(N2CCC(N3CCC(F)CC3)CC2)ccc1Nc1nccc(-c2c(-c3cccc(C(=O)Nc4c(F)cccc4F)c3)nc3ccccn23)n1 [Example 51, N-(2,6-difluorophenyl)-3-[3-(2-{[4-(4-fluoro-1,4′-bipiperidin-1′-yl)-2-(methyloxy)phenyl]amino}-4-pyrimidinyl)imidazo[1,2-a]pyridin-2-yl]benzamide]",IC50,[1],< 0.1 µM
same,IC50,[2],0.25 to 1 µM
same,IC50,COLO205 (colon),0.25 to 1 µM
same,IC50,[3],0.1 to 0.5 µM
"COc1cc(N2CCC(N3CCC(C(F)(F)F)CC3)CC2)ccc1Nc1nccc(-c2c(-c3cccc(C(=O)Nc4c(F)cccc4F)c3)nc3ccccn23)n1 [Example 52, N-(2,6-difluorophenyl)-3-{3-[2-({2-(methyloxy)-4-[4-(trifluoromethyl)-1,4′-bipiperidin-1′-yl]phenyl}amino)-4-pyrimidinyl]imidazo[1,2-a]pyridin-2-yl}benzamide]",IC50,[1],< 0.1 µM
same,IC50,[2],0.25 to 1 µM
same,IC50,COLO205 (colon),0.25 to 1 µM
same,IC50,[3],0.1 to 0.5 µM
"COc1c(Nc2nccc(-c3c(-c4cccc(C(=O)Nc5c(F)cccc5F)c4)nc4ccccn34)n2)ccc(N2CCC(N3CCCCC3)CC2)c1C [Example 54, 3-[3-(2-{[4-(1,4′-bipiperidin-1′-yl)-3-methyl-2-(methyloxy)phenyl]amino}-4-pyrimidinyl)imidazo[1,2-a]pyridin-2-yl]-N-(2,6-difluorophenyl)benzamide]",IC50,[1],> 0.5 µM
same,IC50,[2],> 1 µM
same,IC50,COLO205 (colon),> 1 µM
same,IC50,[3],> 0.5 µM
"COc1ccc(-c2nc3ccccn3c2-c2ccnc(Nc3ccc(N4CCC(N5CCCCC5)CC4)c(C)c3OC)n2)cc1C(=O)Nc1c(F)cccc1F [Example 55, 5-[3-(2-{[4-(1,4′-bipiperidin-1′-yl)-3-methyl-2-(methyloxy)phenyl]amino}-4-pyrimidinyl)imidazo[1,2-a]pyridin-2-yl]-N-(2,6-difluorophenyl)-2-(methyloxy)benzamide]",IC50,[1],0.1 to 0.5 µM
same,IC50,[2],> 1 µM
same,IC50,COLO205 (colon),> 1 µM
same,IC50,[3],> 0.5 µM
"CCOc1ccc(-c2nc3ccccn3c2-c2ccnc(Nc3ccc(N4CCC(N5CCCCC5)CC4)c(C)c3OC)n2)cc1C(=O)Nc1c(F)cccc1F [Example 56, 5-[3-(2-{[4-(1,4′-bipiperidin-1′-yl)-3-methyl-2-(methyloxy)phenyl]amino}-4-pyrimidinyl)imidazo[1,2-a]pyridin-2-yl]-N-(2,6-difluorophenyl)-2-(ethyloxy)benzamide]",IC50,[1],0.1 to 0.5 µM
same,IC50,[2],0.25 to 1 µM
same,IC50,COLO205 (colon),> 1 µM
same,IC50,[3],0.1 to 0.5 µM
"COc1cc(N2CCC(N3CCN(CCS(C)(=O)=O)CC3)CC2)ccc1Nc1nccc(-c2c(-c3cccc(C(=O)Nc4c(F)cccc4F)c3)nc3ccccn23)n1 [Example 59, N-(2,6-difluorophenyl)-3-[3-(2-{[2-(methyloxy)-4-(4-{4-[2-(methylsulfonyl)ethyl]-1-piperazinyl}-1-piperidinyl)phenyl]amino}-4-pyrimidinyl)imidazo[1,2-a]pyridin-2-yl]benzamide]",IC50,[1],< 0.1 µM
same,IC50,[2],< 0.25 µM
same,IC50,COLO205 (colon),0.25 to 1 µM
same,IC50,[3],< 0.1 µM
"COc1cc(N2CCC(N3CCN(CCF)CC3)CC2)ccc1Nc1nccc(-c2c(-c3cccc(C(=O)Nc4c(F)cccc4F)c3)nc3c(C)cccn23)n1 [Example 60, N-(2,6-difluorophenyl)-3-[3-(2-{[4-{4-[4-(2-fluoroethyl)-1-piperazinyl]-1-piperidinyl}-2-(methyloxy)phenyl]amino}-4-pyrimidinyl)-8-methylimidazo[1,2-a]pyridin-2-yl]benzamide]",IC50,[1],< 0.1 µM
same,IC50,[2],0.25 to 1 µM
same,IC50,COLO205 (colon),0.25 to 1 µM
same,IC50,[3],< 0.1 µM
"COc1cc(N2CCC(N3CCN(CCF)CC3)CC2)ccc1Nc1nccc(-c2c(-c3ccc(OC)c(C(=O)Nc4c(F)cccc4F)c3)nc3ccccn23)n1 [Example 61, N-(2,6-difluorophenyl)-5-[3-(2-{[4-{4-[4-(2-fluoroethyl)-1-piperazinyl]-1-piperidinyl}-2-(methyloxy)phenyl]amino}-4-pyrimidinyl)imidazo[1,2-a]pyridin-2-yl]-2-(methyloxy)benzamide]",IC50,[1],< 0.1 µM
same,IC50,[2],< 0.25 µM
same,IC50,COLO205 (colon),0.25 to 1 µM
same,IC50,[3],< 0.1 µM
"CCOc1ccc(-c2nc3ccccn3c2-c2ccnc(Nc3ccc(N4CCC(N5CCN(CCF)CC5)CC4)cc3OC)n2)cc1C(=O)Nc1c(F)cccc1F [Example 63, N-(2,6-difluorophenyl)-2-(ethyloxy)-5-[3-(2-{[4-{4-[4-(2-fluoroethyl)-1-piperazinyl]-1-piperidinyl}-2-(methyloxy)phenyl]amino}-4-pyrimidinyl)imidazo[1,2-a]pyridin-2-yl]benzamide]",IC50,[1],< 0.1 µM
same,IC50,[2],< 0.25 µM
same,IC50,COLO205 (colon),0.25 to 1 µM
same,IC50,[3],< 0.1 µM
"CCN1CCN(C2CCN(c3ccc(Nc4nccc(-c5c(-c6cccc(C(=O)Nc7c(F)cccc7F)c6)nc6ccccn56)n4)c(OC)c3)CC2)CC1 [Example 64, N-(2,6-difluorophenyl)-3-[3-(2-{[4-[4-(4-ethyl-1-piperazinyl)-1-piperidinyl]-2-(methyloxy)phenyl]amino}-4-pyrimidinyl)imidazo[1,2-a]pyridin-2-yl]benzamide]",IC50,[1],0.1 to 0.5 µM
same,IC50,[2],< 0.25 µM
same,IC50,COLO205 (colon),0.25 to 1 µM
same,IC50,[3],< 0.1 µM
"COc1cc(N2CCC(N3CCN(CCS(C)(=O)=O)CC3)CC2)ccc1Nc1nccc(-c2c(-c3ccc(OC)c(C(=O)Nc4c(F)cccc4F)c3)nc3ccccn23)n1 [Example 65, N-(2,6-difluorophenyl)-2-(methyloxy)-5-[3-(2-{[2-(methyloxy)-4-(4-{4-[2-(methylsulfonyl)-ethyl]-1-piperazinyl}-1-piperidinyl)phenyl]amino}-4-pyrimidinyl)imidazo-[1,2-a]pyridin-2-yl]benzamide]",IC50,[1],< 0.1 µM
same,IC50,[2],< 0.25 µM
same,IC50,COLO205 (colon),0.25 to 1 µM
same,IC50,[3],< 0.1 µM
"CCOc1ccc(-c2nc3ccccn3c2-c2ccnc(Nc3ccc(N4CCC(N5CCN(CCS(C)(=O)=O)CC5)CC4)cc3OC)n2)cc1C(=O)Nc1c(F)cccc1F [Example 66, N-(2,6-difluorophenyl)-2-(ethyloxy)-5-[3-(2-{[2-(methyloxy)-4-(4-{4-[2-(methylsulfonyl)-ethyl]-1-piperazinyl}-1-piperidinyl)phenyl]amino}-4-pyrimidinyl)imidazo[1,2-a]pyridin-2-yl]benzamide]",IC50,[1],< 0.1 µM
same,IC50,[2],< 0.25 µM
same,IC50,COLO205 (colon),0.25 to 1 µM
same,IC50,[3],< 0.1 µM
"COc1cc(N2CCC(CCS(C)(=O)=O)CC2)c(C)cc1Nc1nccc(-c2c(-c3cccc(C(=O)Nc4c(F)cccc4F)c3)nc3ccccn23)n1 [Example 231, N-(2,6-difluorophenyl)-3-(3-{2-[(5-methyl-2-(methyloxy)-4-{4-[2-(methylsulfonyl)ethyl]-1-piperidinyl}phenyl)amino]-4-pyrimidinyl}imidazo[1,2-a]pyridin-2-yl)benzamide]",IC50,[1],< 0.1 µM
same,IC50,[2],< 0.25 µM
same,IC50,[3],< 0.1 µM
